Reference: DBAASP
Values after ≈ are worked out from the molar mass of the structure shown. Each block holds one compound with its values, some of them ahead of it.

Columns and labels:
Experiment in all cases: ≥ marks a high value that may be exact or a test limit, other limits are often not marked, values filed in µg/mL are converted to µM
[1] = tested on: Candida albicans ATCC 2002
[2] = tested on: Escherichia coli ATCC 25922
[3] = tested on: Pseudomonas aeruginosa CMCCB 10104
[4] = tested on: Staphylococcus aureus ATCC 25923
[5] = tested on: Bacillus subtilis ATCC 6633
[6] = tested on: Klebsiella pneumoniae ATCC 10031
[7] = tested on: Micrococcus luteus ATCC 10240
[8] = tested on: Pseudomonas aeruginosa ATCC 27853
[9] = tested on: Salmonella enterica subsp. enterica serovar Typhimurium ATCC 14028
[10] = tested on: Shigella dysenteriae ATCC 9752
[11] = tested on: Staphylococcus aureus ATCC 6538P
[12] = tested on: Staphylococcus epidermidis ATCC 12228
[13] = tested on: Bacillus cereus
[14] = tested on: Pseudomonas aeruginosa
[15] = tested on: Shigella dysenteriae
[16] = tested on: Staphylococcus aureus ATCC 2592
[17] = tested on: Bacillus subtilis 168
[18] = tested on: Escherichia coli K-12
[19] = tested on: Pseudomonas aeruginosa PAO1
[20] = tested on: Staphylococcus aureus USA 300
[21] = tested on: Staphylococcus aureus ATCC 6538
[22] = tested on: Escherichia coli B
[23] = tested on: Staphylococcus aureus

MIC [1]: ≥ 85 µM
MIC [2]: > 85 µM
MIC [3]: ≥ 85 µM
MIC [4]: > 85 µM
Compound: CC[C@H](C)[C@H](NC(=O)[C@H](Cc1ccccc1)NC(=O)[C@H](CCCCN)NC(=O)[C@H](CC(=O)O)NC(=O)[C@@H](NC(=O)[C@H](CC(C)C)NC(=O)[C@H](CC(=O)O)NC(=O)[C@H](CCC(=O)O)NC(=O)[C@H](C)NC(=O)[C@H](CC(=O)O)NC(=O)[C@H](CCC(=O)O)NC(=O)CNC(=O)[C@H](CC(N)=O)NC(=O)[C@H](CCC(=O)O)NC(=O)[C@@H](NC(=O)[C@H](CC(N)=O)NC(=O)[C@H](C)NC(=O)[C@@H](N)CC(=O)O)C(C)C)[C@@H](C)O)C(=O)NCC(=O)N[C@@H](CC(C)C)C(=O)N[C@@H](CCSC)C(=O)NCC(=O)O [DANVENGEDAEDLTDKFIGLMG]

MIC [5]: 17.7 µM (≈ 25 µg/mL)
MIC [2]: 70.9 µM (≈ 99.9 µg/mL)
MIC [6]: ≥ 142 µM
MIC [7]: 17.7 µM (≈ 25 µg/mL)
MIC [8]: 142 µM (≈ 200 µg/mL)
MIC [9]: 142 µM (≈ 200 µg/mL)
MIC [10]: ≥ 35.4 µM
MIC [11]: ≥ 70.9 µM
MIC [12]: 70.9 µM (≈ 99.9 µg/mL)
Compound: C[C@H](NC(=O)[C@H](Cc1c[nH]c2ccccc12)NC(=O)[C@H](CCCCN)NC(=O)[C@H](C)NC(=O)[C@@H](N)Cc1ccccc1)C(=O)N[C@@H](Cc1ccccc1)C(=O)N[C@@H](CCCCN)C(=O)N[C@@H](Cc1c[nH]c2ccccc12)C(=O)N[C@@H](C)C(=O)N[C@@H](CCCCN)C(=O)N[C@@H](CCCCN)C(N)=O [FAKWAFKWAKK]

MIC [13]: 8.01 µM (≈ 11 µg/mL)
MIC [5]: 4 µM (≈ 5.5 µg/mL)
MIC [1]: ≥ 48 µM
MIC [2]: 32 µM (≈ 44 µg/mL)
MIC [14]: 4 µM (≈ 5.5 µg/mL)
MIC [15]: 2 µM (≈ 2.75 µg/mL)
MIC [16]: 4 µM (≈ 5.5 µg/mL)
Compound: CC[C@H](C)[C@H](NC(=O)CN)C(=O)N[C@@H](CC(C)C)C(=O)N[C@@H](CC(=O)O)C(=O)N[C@@H](C)C(=O)N[C@H](C(=O)N[C@@H](CCCCN)C(=O)N[C@@H](C)C(=O)N[C@@H](Cc1ccccc1)C(=O)N[C@@H](C)C(=O)N[C@@H](CC(N)=O)C(=O)N[C@@H](C)C(=O)N[C@@H](CC(C)C)C(=O)NCC(N)=O)[C@@H](C)CC [GILDAIKAFANALG]

MIC [1]: 8.76 µM (≈ 18.7 µg/mL)
MIC [2]: > 46.7 µM
MIC [15]: 17.5 µM (≈ 37.5 µg/mL)
MIC [16]: 4.38 µM (≈ 9.37 µg/mL)
Compound: CC[C@H](C)[C@H](NC(=O)CNC(=O)[C@H](CO)NC(=O)[C@H](CC(C)C)NC(=O)[C@H](CC(C)C)NC(=O)CN)C(=O)N[C@@H](CC(C)C)C(=O)NCC(=O)N[C@@H](C)C(=O)NCC(=O)N[C@@H](CCCCN)C(=O)N[C@@H](Cc1cnc[nH]1)C(=O)N[C@H](C(=O)N[C@H](C(=O)N[C@H]1CSSC[C@@H](C(=O)N[C@@H](C)C(=O)N[C@@H](CCCCN)C(=O)N[C@@H](C)C(=O)O)NC(=O)CNC(=O)[C@H]([C@@H](C)O)NC(=O)[C@H](CC(C)C)NC(=O)CNC1=O)C(C)C)[C@@H](C)CC [GLLSGILGAGKHIVCGLTGCAKA]

MIC [1]: 13.7 µM (≈ 30 µg/mL)
MIC [2]: > 45.7 µM
MIC [15]: 27.4 µM (≈ 60 µg/mL)
MIC [16]: 6.86 µM (≈ 15 µg/mL)
Compound: CC(C)C[C@H](NC(=O)[C@H](CCC(N)=O)NC(=O)[C@H](CCCCN)NC(=O)[C@H](Cc1ccc(O)cc1)NC(=O)[C@@H]1CCCN1C(=O)[C@H](CCC(N)=O)NC(=O)[C@H](C)NC(=O)[C@H](CO)NC(=O)CN)C(=O)N[C@@H](Cc1cnc[nH]1)C(=O)N[C@@H](CCCCN)C(=O)N[C@H](C(=O)N[C@H](C(=O)N[C@@H](CC(N)=O)C(=O)N[C@@H](Cc1c[nH]c2ccccc12)C(=O)N[C@@H](CC(=O)O)C(=O)N1CCC[C@H]1C(=O)N[C@@H](Cc1ccc(O)cc1)C(=O)NCC(=O)O)C(C)C)C(C)C [GSAQPYKQLHKVVNWDPYG]

MIC [17]: 12.5 µM (≈ 21.7 µg/mL)
MIC [18]: 3.1 µM (≈ 5.38 µg/mL)
MIC [19]: 6.25 µM (≈ 10.9 µg/mL)
MIC [20]: 6.2 µM (≈ 10.8 µg/mL)
Compound: CC[C@H](C)[C@H](N)C(=O)N[C@@H](CCCCN)C(=O)N[C@@H](Cc1c[nH]c2ccccc12)C(=O)N[C@@H](CCCCN)C(=O)N[C@@H](CCCCN)C(=O)N[C@@H](CC(C)C)C(=O)N[C@@H](CC(C)C)C(=O)N[C@@H](CCCN=C(N)N)C(=O)N[C@@H](C)C(=O)N[C@@H](C)C(=O)N[C@@H](CCCCN)C(=O)N[C@@H](CCCN=C(N)N)C(=O)N[C@H](C(=O)N[C@@H](CC(C)C)C(N)=O)[C@@H](C)CC [IKWKKLLRAAKRIL]

MIC [18]: 3 µM (≈ 7.97 µg/mL)
MIC [8]: > 6 µM
MIC [21]: > 25 µM
Compound: CC[C@H](C)[C@H](NC(=O)[C@H](CCSC)NC(=O)[C@H](CCCCN)NC(=O)[C@H](CCC(=O)O)NC(=O)[C@H](C)NC(=O)[C@H](CCCCN)NC(=O)[C@H](CCCCN)NC(=O)[C@H](Cc1ccccc1)NC(=O)[C@@H](NC(=O)[C@H](CCCCN)NC(=O)[C@H](Cc1c[nH]c2ccccc12)NC(=O)[C@@H](N)CCCCN)C(C)C)C(=O)N[C@@H](CCCN=C(N)N)C(=O)N[C@@H](CC(N)=O)C(=O)N[C@H](C(=O)N[C@@H](CCCN=C(N)N)C(=O)N[C@@H](CC(N)=O)C(=O)N[C@@H](CCCCN)C(=O)N[C@H](C(=O)N[C@H](C(=O)N[C@@H](CCCCN)C(N)=O)C(C)C)[C@@H](C)CC)[C@@H](C)CC [KWKVFKKAEKMIRNIRNKIVK]

MIC [5]: ≥ 48 µM
MIC [2]: 96 µM (≈ 99.9 µg/mL)
MIC [6]: ≥ 192 µM
MIC [7]: ≥ 96 µM
MIC [8]: 48 µM (≈ 50 µg/mL)
MIC [9]: > 192 µM
MIC [10]: ≥ 192 µM
MIC [11]: 24 µM (≈ 25 µg/mL)
MIC [12]: 96 µM (≈ 99.9 µg/mL)
Compound: CC(C)C[C@H](NC(=O)[C@H](CCCCN)NC(=O)[C@H](CCCCN)NC(=O)[C@H](CC(C)C)NC(=O)[C@H](Cc1c[nH]c2ccccc12)NC(=O)[C@H](CCCCN)NC(=O)[C@H](CC(C)C)NC(=O)[C@@H](N)CC(C)C)C(N)=O [LLKWLKKL]

MIC [18]: ≥ 100 µM
MIC [20]: ≥ 100 µM
Compound: CC[C@H](C)[C@H](NC(=O)[C@@H]1CCCN1C(=O)[C@H](Cc1cnc[nH]1)NC(=O)[C@H](CCCCN)NC(=O)[C@@H]1CCCN1C(=O)[C@@H](N)CCCNC(=N)N)C(=O)N[C@@H](CCCCN)C(=O)N[C@@H](Cc1cnc[nH]1)C(=O)N[C@@H](CCC(N)=O)C(=O)NCC(=O)N[C@@H](CC(C)C)C(=O)N1CCC[C@H]1C(=O)N[C@@H](CCC(N)=O)C(=O)N[C@@H](CCC(=O)O)C(=O)N[C@H](C(=O)N[C@@H](CC(C)C)C(=O)N[C@@H](CC(N)=O)C(=O)N[C@@H](CCC(=O)O)C(=O)N[C@@H](CC(N)=O)C(=O)N[C@@H](CC(C)C)C(=O)N[C@@H](CC(C)C)C(=O)N[C@@H](CCCNC(=N)N)C(=O)N[C@@H](Cc1ccccc1)C(=O)O)C(C)C [RPKHPIKHQGLPQEVLNENLLRF]

MIC [18]: 30 µM (≈ 48.8 µg/mL)
Compound: CC[C@H](C)[C@H](NC(=O)[C@H](CCCN=C(N)N)NC(=O)[C@H](CCC(N)=O)NC(=O)[C@@H](NC(=O)[C@@H](NC(=O)[C@H](CCCN=C(N)N)NC(=O)[C@@H](N)CCCN=C(N)N)[C@@H](C)CC)C(C)C)C(=O)N[C@@H](CCCN=C(N)N)C(=O)N[C@@H](CC(=O)O)C(=O)N[C@@H](Cc1ccccc1)C(=O)N[C@@H](CC(C)C)C(=O)N[C@@H](CCCN=C(N)N)C(N)=O [RRIVQRIRDFLR]

MIC [17]: 1.2 µM (≈ 2.12 µg/mL)
MIC [22]: 3.5 µM (≈ 6.18 µg/mL)
MIC [14]: 40 µM (≈ 70.7 µg/mL)
MIC [23]: 40 µM (≈ 70.7 µg/mL)
Compound: CC[C@H](C)[C@H](NC(=O)[C@H](CCCCN)NC(=O)[C@H](CCCCN)NC(=O)[C@H](Cc1c[nH]c2ccccc12)NC(=O)[C@H](CC(N)=O)NC(=O)[C@@H](N)C(C)C)C(=O)N[C@@H](CC(C)C)C(=O)NCC(=O)N[C@@H](CCCCN)C(=O)N[C@H](C(=O)N[C@H](C(=O)N[C@@H](CCCCN)C(=O)N[C@H](C(=O)N[C@H](C(=O)N[C@@H](CCCCN)C(=O)O)C(C)C)C(C)C)[C@@H](C)CC)[C@@H](C)CC [VNWKKILGKIIKVVK]

MIC [17]: 0.7 µM (≈ 1.27 µg/mL)
MIC [22]: 0.7 µM (≈ 1.27 µg/mL)
MIC [14]: 26.1 µM (≈ 47.2 µg/mL)
MIC [23]: 15.6 µM (≈ 28.2 µg/mL)
Compound: CC[C@H](C)[C@H](NC(=O)[C@H](CCCCN)NC(=O)[C@H](CCCCN)NC(=O)[C@H](Cc1c[nH]c2ccccc12)NC(=O)[C@H](CC(N)=O)NC(=O)[C@@H](N)C(C)C)C(=O)N[C@@H](CC(C)C)C(=O)N[C@@H](CCCCN)C(=O)N[C@@H](CCCCN)C(=O)N[C@H](C(=O)N[C@H](C(=O)N[C@@H](CCCCN)C(=O)N[C@H](C(=O)N[C@@H](C)C(=O)N[C@@H](CCCCN)C(N)=O)C(C)C)[C@@H](C)CC)[C@@H](C)CC [VNWKKILKKIIKVAK]
